# In patent US11987588B2, “Modulators of the beta-3 adrenergic receptor useful for the treatment or prevention of heart failure and disorders related thereto” (Arena Pharmaceuticals, Inc., priority 2017, dated 2024):
# Biological target: Beta-3 Adrenergic Receptor (Homo sapiens (Human), UniProt P13945)
# Assay: Homogeneous Time-Resolved Fluorescence (HTRF) cAMP antagonist assay, IC50 determination
# Type: cell-based
# Settings: CHO-K1 cells stably expressing recombinant receptor, isoproterenol at EC90
# How it was run: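 CHO-K1 cells stably expressing the recombinant receptor were preincubated with compound (10-point, 5-fold dilutions; top final typically 10 or 100 μM) in PBS with 1 mM IBMX, then stimulated with isoproterenol at its EC90 for 1 h at room temperature. cAMP was read by HTRF against an on-plate standard curve.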
# Chain of Beta-3 Adrenergic Receptor (P13945 whole entry, species assumed): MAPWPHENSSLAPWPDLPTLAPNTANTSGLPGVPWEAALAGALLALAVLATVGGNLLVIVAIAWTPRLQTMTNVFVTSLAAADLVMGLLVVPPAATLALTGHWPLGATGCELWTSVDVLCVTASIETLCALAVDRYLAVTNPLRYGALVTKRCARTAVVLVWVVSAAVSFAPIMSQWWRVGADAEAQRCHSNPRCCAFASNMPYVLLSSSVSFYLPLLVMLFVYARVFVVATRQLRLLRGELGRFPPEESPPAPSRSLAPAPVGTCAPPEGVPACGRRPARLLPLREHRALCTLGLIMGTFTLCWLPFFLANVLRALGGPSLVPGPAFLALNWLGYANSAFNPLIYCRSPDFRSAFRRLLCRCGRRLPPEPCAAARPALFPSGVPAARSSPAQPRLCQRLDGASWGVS
row,Compound,IC50 [nM]
1,"CNS(=O)(=O)c1cccc(OC[C@@H](O)CNC2COC3(CCN(S(=O)(=O)c4cnn(-c5ccccc5)c4)CC3)C2)c1 (stereo partly drawn) [Compound 243, 3-((2S)-2-hydroxy-3-(8-(1-phenyl-1H-pyrazol-4-ylsulfonyl)-1-oxa-8-azaspiro[4.5]decan-3-ylamino)propoxy)-N-methylbenzenesulfonamide]",26.2
2,"CNS(=O)(=O)c1cccc(OC[C@@H](O)CNC2COC3(CCN(S(=O)(=O)c4cccc(Cl)c4F)CC3)C2)c1 (stereo partly drawn) [Compound 139, 3-((2S)-3-(8-(3-chloro-2-fluorophenylsulfonyl)-1-oxa-8-azaspiro[4.5]decan-3-ylamino)-2-hydroxypropoxy)-N-methylbenzenesulfonamide]",10.2
3,"CNS(=O)(=O)c1cccc(OC[C@@H](O)CN[C@H]2COC3(CCN(c4nc(OC)cc(OC)n4)CC3)C2)c1 [Compound 584, 3-((S)-3-((R)-8-(4,6-dimethoxypyrimidin-2-yl)-1-oxa-8-azaspiro[4.5]decan-3-ylamino)-2-hydroxypropoxy)-N-methylbenzenesulfonamide]",266
4,"CCCN1CCOc2ncc(S(=O)(=O)N3CCC4(CC3)C[C@@H](NC[C@H](O)COc3cccc(S(=O)(=O)NC)c3)CO4)cc21 [Compound 470, 3-((S)-2-hydroxy-3-((R)-8-(1-propyl-2,3-dihydro-1H-pyrido[2,3-b][1,4]oxazin-7-ylsulfonyl)-1-oxa-8-azaspiro[4.5]decan-3-ylamino)propoxy)-N-methylbenzenesulfonamide]",35.8
5,"CNS(=O)(=O)c1cccc(OC[C@@H](O)CNC2COC3(CCN(S(=O)(=O)c4cccc(-c5cc[nH]n5)c4)CC3)C2)c1 (stereo partly drawn) [Compound 84, 3-((2S)-3-(8-(3-(1H-pyrazol-3-yl)phenylsulfonyl)-1-oxa-8-azaspiro[4.5]decan-3-ylamino)-2-hydroxypropoxy)-N-methylbenzenesulfonamide]",9.09
6,"CNS(=O)(=O)c1cccc(OC[C@@H](O)CNC2COC3(CCN(S(=O)(=O)c4ccc(-c5ccccc5)cc4)CC3)C2)c1 (stereo partly drawn) [Compound 123, 3-((2S)-3-(8-(biphenyl-4-ylsulfonyl)-1-oxa-8-azaspiro[4.5]decan-3-ylamino)-2-hydroxypropoxy)-N-methylbenzenesulfonamide]",40.5
7,"CNS(=O)(=O)c1cccc(OC[C@@H](O)CNC2COC3(CCN(S(=O)(=O)c4cc(Br)cc5c4OCC5)CC3)C2)c1 (stereo partly drawn) [Compound 260, 3-((2S)-3-(8-(5-bromo-2,3-dihydrobenzofuran-7-ylsulfonyl)-1-oxa-8-azaspiro[4.5]decan-3-ylamino)-2-hydroxypropoxy)-N-methylbenzenesulfonamide]",20.3
8,"CNS(=O)(=O)c1cccc(OC[C@@H](O)CNC2COC3(CCN(S(=O)(=O)c4cccc(-c5ccc(CNCCO)cc5)c4)CC3)C2)c1 (stereo partly drawn) [Compound 304, 3-((2S)-2-hydroxy-3-(8-(4′-((2-hydroxyethylamino)methyl)biphenyl-3-ylsulfonyl)-1-oxa-8-azaspiro[4.5]decan-3-ylamino)propoxy)-N-methylbenzenesulfonamide]",43
9,"CNS(=O)(=O)c1cccc(OC[C@@H](O)CNC2COC3(CCN(S(=O)(=O)c4cccc(-c5ccc(CN)s5)c4)CC3)C2)c1 (stereo partly drawn) [Compound 369, 3-((2S)-3-(8-(3-(5-(aminomethyl)thiophen-2-yl)phenylsulfonyl)-1-oxa-8-azaspiro[4.5]decan-3-ylamino)-2-hydroxypropoxy)-N-methylbenzenesulfonamide]",14.6
10,"CN(C)CCCNS(=O)(=O)c1cccc(OC[C@@H](O)CNC2COC3(CCN(S(=O)(=O)c4cccc(Cl)c4)CC3)C2)c1 (stereo partly drawn) [Compound 307, 3-((2S)-3-(8-(3-chlorophenylsulfonyl)-1-oxa-8-azaspiro[4.5]decan-3-ylamino)-2-hydroxypropoxy)-N-(3-(dimethylamino)propyl)benzenesulfonamide]",3370
11,"CNS(=O)(=O)c1cccc(OC[C@@H](O)CNC2COC3(CCN(S(=O)(=O)c4cccc(-c5ccc(NCCN6CCOCC6)nc5)c4)CC3)C2)c1 (stereo partly drawn) [Compound 371, 3-((2S)-2-hydroxy-3-(8-(3-(6-(2-morpholinoethylamino)pyridin-3-yl)phenylsulfonyl)-1-oxa-8-azaspiro[4.5]decan-3-ylamino)propoxy)-N-methylbenzenesulfonamide]",42
12,"NS(=O)(=O)c1cccc(OC[C@@H](O)CN[C@@H]2COC3(CCN(S(=O)(=O)c4cnc5cc[nH]c5c4)CC3)C2)c1 [Compound 563, 3-((S)-3-((S)-8-(1H-pyrrolo[3,2-b]pyridin-6-ylsulfonyl)-1-oxa-8-azaspiro[4.5]decan-3-ylamino)-2-hydroxypropoxy)benzenesulfonamide]",26.4
13,"CNS(=O)(=O)c1cccc(OC[C@@H](O)CNC2COC3(CCN(S(=O)(=O)c4cc(Br)ccc4OCCN4CCCC4)CC3)C2)c1 (stereo partly drawn) [Compound 412, 3-((2S)-3-(8-(5-bromo-2-(2-(pyrrolidin-1-yl)ethoxy)phenylsulfonyl)-1-oxa-8-azaspiro[4.5]decan-3-ylamino)-2-hydroxypropoxy)-N-methylbenzenesulfonamide]",49.6
14,"CNS(=O)(=O)c1cccc(OC[C@@H](O)CN[C@H]2COC3(CCN(S(=O)(=O)c4cccc(-c5ccc(CNC(C)C)cc5)c4)CC3)C2)c1 [Compound 362, 3-((S)-2-hydroxy-3-((R)-8-(4′-((isopropylamino)methyl)biphenyl-3-ylsulfonyl)-1-oxa-8-azaspiro[4.5]decan-3-ylamino)propoxy)-N-methylbenzenesulfonamide]",27.5
15,"Cc1c[nH]c2ncc(S(=O)(=O)N3CCC4(CC3)C[C@@H](NC[C@H](O)COc3cccc(S(N)(=O)=O)c3)CO4)cc12 [Compound 558, 3-((S)-2-hydroxy-3-((R)-8-(3-methyl-1H-pyrrolo[2,3-b]pyridin-5-ylsulfonyl)-1-oxa-8-azaspiro[4.5]decan-3-ylamino)propoxy)benzenesulfonamide]",13.6
16,"CNS(=O)(=O)c1cccc(OC[C@@H](O)CNC2COC3(CCN(S(=O)(=O)c4c(Cl)nc5sccn45)CC3)C2)c1 (stereo partly drawn) [Compound 129, 3-((2S)-3-(8-(6-chloroimidazo[2,1-b]thiazol-5-ylsulfonyl)-1-oxa-8-azaspiro[4.5]decan-3-ylamino)-2-hydroxypropoxy)-N-methylbenzenesulfonamide]",24.9
17,"CNS(=O)(=O)c1cccc(OC[C@@H](O)CNC2COC3(CCN(S(=O)(=O)c4ccccc4S(C)(=O)=O)CC3)C2)c1 (stereo partly drawn) [Compound 43, 3-((2S)-2-hydroxy-3-(8-(2-(methylsulfonyl)phenylsulfonyl)-1-oxa-8-azaspiro[4.5]decan-3-ylamino)propoxy)-N-methylbenzenesulfonamide]",74
18,"CNS(=O)(=O)c1cccc(OC[C@@H](O)CNC2COC3(CCN(S(=O)(=O)c4ccccn4)CC3)C2)c1 (stereo partly drawn) [Compound 322, 3-((2S)-2-hydroxy-3-(8-(pyridin-2-ylsulfonyl)-1-oxa-8-azaspiro[4.5]decan-3-ylamino)propoxy)-N-methylbenzenesulfonamide]",73.5
19,"CCNS(=O)(=O)c1cccc(OC[C@@H](O)CN[C@H]2COC3(CCN(S(=O)(=O)c4cnc5cc[nH]c5c4)CC3)C2)c1 [Compound 520, 3-((S)-3-((R)-8-(1H-pyrrolo[3,2-b]pyridin-6-ylsulfonyl)-1-oxa-8-azaspiro[4.5]decan-3-ylamino)-2-hydroxypropoxy)-N-ethylbenzenesulfonamide]",14.6
